ChEMBL document CHEMBL4152334, “Synthesis, molecular docking and biological evaluation of novel phthaloyl derivatives of 3-amino-3-aryl propionic acids as inhibitors of Trypanosoma cruzi trans-sialidase” (2018)

Legend:
[1] = test system: Trypanosoma cruzi; assay: Trypanocidal activity against trypomastigote stage of Trypanosoma cruzi NINOA infected in NIH mouse blood assessed as parasite lysis at 10 ug/ml after 24 hrs by optical microscopic method relative to control; assay type: functional
[2] = test system: Trypanosoma cruzi; assay: Trypanocidal activity against trypomastigote stage of Trypanosoma cruzi INC-5 infected in NIH mouse blood assessed as parasite lysis at 10 ug/ml after 24 hrs by optical microscopic method relative to control; assay type: functional
[3] = test system: Trypanosoma cruzi; assay: Trypanocidal activity against trypomastigote stage of Trypanosoma cruzi NINOA infected in NIH mouse blood assessed as […] parasite lysis after 24 hrs by optical microscopic method; assay type: functional
[4] = test system: Trypanosoma cruzi; assay: Trypanocidal activity against trypomastigote stage of Trypanosoma cruzi INC-5 infected in NIH mouse blood assessed as parasite lysis after 24 hrs by optical microscopic method; assay type: functional; conditions: INC-5, Blood
[5] = target: T1, Trans-sialidase (Trypanosoma cruzi) (UniProt Q26964); assay: Inhibition of Trypanosoma cruzi trans-sialidase at 1 mM assessed as reduction of 3'-sialyl-N-acetyllactosamine formation at 1 mM using N-acetyllactosamine as substrate and 3-sialyl-lactose as donor incubated for 15 mins by HPAEC-PAD relative to control
T1 sequence (whole entry): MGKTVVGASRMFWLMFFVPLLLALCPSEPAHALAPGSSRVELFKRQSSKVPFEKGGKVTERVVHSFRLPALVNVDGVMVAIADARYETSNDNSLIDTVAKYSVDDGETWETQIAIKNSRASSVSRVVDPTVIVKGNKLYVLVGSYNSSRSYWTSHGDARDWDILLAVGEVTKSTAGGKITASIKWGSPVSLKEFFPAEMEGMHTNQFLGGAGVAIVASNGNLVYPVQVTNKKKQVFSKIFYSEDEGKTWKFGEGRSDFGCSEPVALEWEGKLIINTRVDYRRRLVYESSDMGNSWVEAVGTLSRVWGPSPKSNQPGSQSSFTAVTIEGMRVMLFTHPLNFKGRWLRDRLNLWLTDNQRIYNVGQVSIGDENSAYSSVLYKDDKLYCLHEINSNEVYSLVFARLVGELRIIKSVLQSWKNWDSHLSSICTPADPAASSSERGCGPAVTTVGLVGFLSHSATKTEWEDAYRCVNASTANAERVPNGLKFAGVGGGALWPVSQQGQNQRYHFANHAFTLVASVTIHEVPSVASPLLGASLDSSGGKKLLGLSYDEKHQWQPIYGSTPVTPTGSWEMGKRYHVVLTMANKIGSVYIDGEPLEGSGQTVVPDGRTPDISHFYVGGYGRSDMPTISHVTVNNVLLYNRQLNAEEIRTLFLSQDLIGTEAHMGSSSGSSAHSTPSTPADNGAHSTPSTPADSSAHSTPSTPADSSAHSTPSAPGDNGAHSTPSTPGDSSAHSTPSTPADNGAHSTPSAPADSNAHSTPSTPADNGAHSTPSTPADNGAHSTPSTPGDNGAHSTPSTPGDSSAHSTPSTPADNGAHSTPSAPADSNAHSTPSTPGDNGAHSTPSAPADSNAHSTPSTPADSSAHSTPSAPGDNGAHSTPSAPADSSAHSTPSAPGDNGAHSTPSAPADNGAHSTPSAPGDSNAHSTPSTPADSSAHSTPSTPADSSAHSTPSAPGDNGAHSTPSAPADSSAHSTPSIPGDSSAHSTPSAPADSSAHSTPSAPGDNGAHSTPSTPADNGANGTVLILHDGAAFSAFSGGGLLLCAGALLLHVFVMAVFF

Compound | Activity [1] | Activity [2] | LC50 [3] | LC50 [4] | inhibition [5]
NC(CC(=O)O)c1cccs1 (configuration not stated) | 8% | 32% | – | – | –
COc1ccc(C(CC(=O)O)N2C(=O)c3ccccc3C2=O)cc1 (configuration not stated) | 24% | 9% | – | – | –
Cc1ccc2c(c1)C(=O)N(C(CC(=O)O)c1ccc(Cl)cc1)C2=O (configuration not stated) | 52% | 51% | 37.7 µM | 52 µM | –
Cc1ccc(C(CC(=O)O)N2C(=O)c3ccc(C(=O)O)cc3C2=O)cc1 (configuration not stated) | 85% | 55% | 110 µM | 39.9 µM | –
O=C(O)CC(c1ccc(Cl)cc1)N1C(=O)c2ccc(C(=O)O)cc2C1=O (configuration not stated) | 3% | 69% | – | – | –
O=C(O)CC(c1ccco1)N1C(=O)c2ccccc2C1=O (configuration not stated) | 16% | 21% | – | – | 76.5%
Cc1ccc(C(N)CC(=O)O)cc1 (configuration not stated) | 78% | 59% | 184 µM | 290 µM | –
Cc1ccc2c(c1)C(=O)N(C(CC(=O)O)c1ccc3c(c1)OCCO3)C2=O (configuration not stated) | 47% | 40% | – | – | –
O=C(O)CC(c1ccc(-c2ccccc2)cc1)N1C(=O)c2ccccc2C1=O (configuration not stated) | 31% | 22% | – | – | –
Cc1ccc2c(c1)C(=O)N(C(CC(=O)O)c1ccco1)C2=O (configuration not stated) | 27% | 40% | – | – | 40%
O=C(O)CC(c1ccccc1[N+](=O)[O-])N1C(=O)c2ccc(C(=O)O)cc2C1=O (configuration not stated) | 48% | 68% | – | – | –
Cc1ccc2c(c1)C(=O)N(C(CC(=O)O)c1cccs1)C2=O (configuration not stated) | 47% | 48% | – | – | –
O=C(O)CC(c1cc2c(cc1[N+](=O)[O-])OCCO2)N1C(=O)c2ccc(C(=O)O)cc2C1=O (configuration not stated) | 40% | 59% | – | – | –
NC(CC(=O)O)c1ccc2c(c1)OCCO2 (configuration not stated) | 37% | 52% | – | – | –
Cc1ccc2c(c1)C(=O)N(C(CC(=O)O)c1ccc(-c3ccccc3)cc1)C2=O (configuration not stated) | 25% | 25% | – | – | –
Cc1ccc2c(c1)C(=O)N(C(CC(=O)O)c1ccc(Br)cc1)C2=O (configuration not stated) | 65% | 50% | 24.6 µM | 23 µM | –
CCc1ccc(C(CC(=O)O)N2C(=O)c3ccccc3C2=O)cc1 (configuration not stated) | 22% | 8% | – | – | –
Cc1ccc(C(CC(=O)O)N2C(=O)c3ccc(C)cc3C2=O)cc1 (configuration not stated) | 73% | 67% | 85.6 µM | 43.6 µM | –
O=C(O)CC(c1ccc(Br)cc1)N1C(=O)c2ccc(C(=O)O)cc2C1=O (configuration not stated) | 23% | 56% | – | – | –
O=C(O)CC(c1ccc(O)cc1)N1C(=O)c2ccc(C(=O)O)cc2C1=O (configuration not stated) | 43% | 71% | – | – | 53%
Cc1ccc2c(c1)C(=O)N(C(CC(=O)O)c1ccc([N+](=O)[O-])cc1)C2=O (configuration not stated) | 45% | 25% | – | – | –
Cc1ccc2c(c1)C(=O)N(C(CC(=O)O)c1ccc3ccccc3c1)C2=O (configuration not stated) | 63% | 65% | 52.7 µM | 46.2 µM | 86.9%
O=C(O)CC(c1cccs1)N1C(=O)c2ccc(C(=O)O)cc2C1=O (configuration not stated) | 67% | 19% | – | – | –
NC(CC(=O)O)c1ccccc1[N+](=O)[O-] (configuration not stated) | 23% | 63% | – | – | –
O=C(O)CC(c1ccc([N+](=O)[O-])cc1)N1C(=O)c2ccc(C(=O)O)cc2C1=O (configuration not stated) | 23% | 63% | – | – | –
O=C(O)CC(c1ccc(O)cc1)N1C(=O)c2ccccc2C1=O (configuration not stated) | 77% | 68% | 71.4 µM | 91 µM | 5.6%
Cc1ccc2c(c1)C(=O)N(C(CC(=O)O)c1cc3c(cc1[N+](=O)[O-])OCCO3)C2=O (configuration not stated) | 47% | 63% | – | – | –
O=C(O)CC(c1ccc(Cl)cc1)N1C(=O)c2ccccc2C1=O (configuration not stated) | 36% | 70% | – | – | –
NC(CC(=O)O)c1cc2c(cc1[N+](=O)[O-])OCCO2 (configuration not stated) | 7% | 15% | – | – | –
